Data from US6709830B2, “Methods for modulating the activation of a lymphocyte expressed G protein coupled receptor involved in cell proliferation, autoimmunity and inflammation” (The Regents of the University of California, priority 1997, dated 2004).
“Also recorded” adds a separate entry of the source.

Key:
G2A [1] = target: T1, G2A (Mus musculus, UniProt Q9Z282); test: Radioligand binding assay with cell homogenates of HEK 293 G2A.GFP cells; conditions: for competition for binding of [3H] 16:0 LPC / [3H] SPC to G2A: radioligand 1 nM, unlabelled lipids 100 nM, HEK 293 G2A.GFP
T1 construct: expressed in transfected cells; host or cells: MCF 10A (human breast epithelial cells, no endogenous G2A), plasmid pEXV3 G2A.GFP
T1 sequence (Q9Z282 1-382): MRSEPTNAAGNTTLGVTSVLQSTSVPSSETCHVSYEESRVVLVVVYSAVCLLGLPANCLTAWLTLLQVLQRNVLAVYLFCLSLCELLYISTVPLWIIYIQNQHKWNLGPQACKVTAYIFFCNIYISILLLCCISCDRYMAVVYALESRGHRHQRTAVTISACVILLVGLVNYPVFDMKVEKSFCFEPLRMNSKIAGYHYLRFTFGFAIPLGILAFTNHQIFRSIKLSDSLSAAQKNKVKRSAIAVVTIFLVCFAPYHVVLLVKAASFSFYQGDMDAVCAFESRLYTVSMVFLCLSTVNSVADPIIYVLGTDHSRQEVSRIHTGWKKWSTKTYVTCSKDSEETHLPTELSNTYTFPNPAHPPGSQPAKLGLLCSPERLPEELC
Procedure: To characterise the binding of LPC and SPC to G2A, we performed radioligand binding assays as described previously (Xu, Y, e al, Nature Cell Biology, 2: pp261-267, 2000). [^3H] 16:0 LPC and [^3H] SPC bound to cell homogenates from G2A expressing HEK 293 cells in a time-dependent manner and reached equilibrium after 60 minutes incubation at 4° C. (FIGS. 5A and B). […] LPC and [^3H] SPC. Binding of [^3H] LPC and [^3H] […] The maximum binding capacities for LPC and SPC were approximately 1,503 fmole/10^5 cells and 1,840 fmole/10^5 cells respectively.
Binding assay HEK 293 GFP or HEK 293 G2A.GFP cells were serum starved for 20 hours and subsequently collected in PBS/EDTA. Pelleted cells were stored at −80° C. until use. Frozen cells (10^6 cells/ml) were homogenized in “binding buffer” containing 20 mM Tris-HCl pH 7.5, 100 mM NaCl, 15 mM NaF, 0.2 mM PMSF, 1 mM MgCl2 and 4 mg/ml fatty acid-free BSA in a tight-fit glass Dounce homogeniser. Assays were performed in 96-well plates in triplicate with 100 μl cell homogenate (equivalent to 10^5 cells/well). Varying amounts of [^3H] 16:0 LPC or [^3H] SPC were added to cell homogenates in 50 μl of binding buffer in the presence or absence of cold 16:0 LPC or SPC, or other competitors. Plates were incubated at 4° C. for 2 hours, or for the indicated times. Cell-bound [^3H] LPC or [^3H] SPC was collected onto a filter (Printed Filtermat A, Wallac, Gaithersburg, Md.) using an automated cell harvester (HARVESTER 96, Tomtec, Orange, Conn.). A pause wash programme (five cycle washes) was used. Filters were presoaked in 1% polyethyleneimine (Sigma) to prevent nonspecific binding, dried, sealed in bags (Sample Bag, Wallac) with 4.5 ml Betaplate “Scint” scintillation cocktail (Wallac), and counted in a 1450 Microbeta Trilux Liquid Scintillation and Luminescence Counter (Wallac). Specific binding was calculated by subtraction of nonspecific binding (binding detected in the presence of 100-fold excess unlabelled lipid) from total binding.

G2A [2] = target: T1, G2A; test: Calcium assay ([Ca2+]i, Fura-2) in G2A.GFP transfected MCF 10A cells; assay type: cell-based; conditions: for transient increase in [Ca2+]i: LPC 0.1 μM, SPC 0.1 μM, LPA 1 μM, PAF 0.1 μM, ATP 20 μM; for desensitisation to subsequent stimulation with LPC or SPC (1 μM): pretreatment 5 minutes with LPC 1 μM or SPC 10 μM (b23 prints SPC 1.0 μM)
Procedure: (§1) MCF 10A cells were cultured in specialised glass-bottom dishes (Bioptech, Inc., Butler, Pa.) and loaded with Fura-2/AM ([…]; Molecular Probes) at 37° C. for 30 minutes in HEPES buffered saline (pH 7.4) containing 125 mM NaCl, 5 mM KCl, 1.2 mM MgSO4, 11 mM glucose, 1.8 mM CaCl2, 25 mM HEPES, 0.2% BSA. Loaded cells were washed, placed in HEPES buffeted saline without BSA, and incubated for 30 minutes at ambient temperature ensure dye hydrolysis by cytosolic esterases. Using a dual-wavelength spectrofluorometer (RFK-6002, Photon Technology Int'l, So. Brunswick, N.J.) coupled to an inverted fluorescence microscope (Olympus, IX-70, Lake Success, N.Y.), GFP-positive cells were identified using an excitation wavelength of 488 nm, a dichroic 505 nm long-pass and an emitter bandpass of 535 nm (Chroma Technology, Brattleboro, Vt.). [Ca^2+], measurements were performed on individual GFP-positive cells at excitation wavelengths of 340 nm and 380 nm, and an emission wavelength of 510 nm. Prior to data acquisition, background fluorescence (areas without cells) was measured and automatically subtracted from subsequent measurements. Agonists were diluted in HEPES buffered saline and solution changes accomplished by rapidly aspirating the buffer and replacing it with HEPES buffered saline containing the specific agonist. Fura-2 fluorescence signals (340 nm, 380 nm and the 340/380 ratio) originating from individual GFP-positive cells were continuously monitored at a sampling frequency of 25 Hz and collected using a software package from Photon Technology International (Felix™). Conversion of the 340 nm/380 nm ratio value into [Ca^2+]i was estimated by comparing the cellular fluorescence ratio with ratios acquired using Fura-2 (free acid) in buffers containing known Ca^2+ concentrations. [Ca^2+]i was then calculated as described by Grynkiewicz, et al (Grynkiewicz, G, et al, J Biol Chem, 260: pp3440-3450, 1985). All assays were performed in assay buffers containing 1 mM EGTA to exclude measurement of calcium influx.
(§2) To address whether G2A is a lysophospholipid receptor, we examined signalling events in cells ectopically expressing G2A as functional correlates of receptor activation. […] [Ca^2+]i measurements were performed in MCF 10A cells transfected with plasmids encoding green fluorescent protein (GFP) tagged G2A (pEXV3 G2A.GFP) (Kabarowski, J H S, et al, PNAS, 97: pp12109-12114, 2000) or GFP as described (Yan Xu and Derek S. Damron, Methods in Molecular Medicine, 39: Ovarian Cancer: Methods and Protocols, pp611-619, 2000). […] Similarly, dose-dependent responses of G2A.GFP transfected cells to SPC were observed, with an EC50 of approximately 0.4 μM (FIG. 4B). […] Responses to these agonists were not affected by G2A.GFP expression (FIG. 4A, middle and lower panels).

MCF 10A cells = test: Calcium assay ([Ca2+]i, Fura-2) in parental or pEXV3 GFP transfected MCF 10A cells (control); assay type: cell-based, human; conditions: SPC or LPC up to 10 μM, LPA 1 μM, PAF 0.1 μM, ATP 20 μM
Procedure: as §1, §2

G2A.GFP fusion receptor = target: T2, G2A.GFP fusion receptor (Mus musculus, UniProt Q9Z282); test: Internalisation of G2A.GFP in HEK 293 G2A.GFP cells (confocal microscopy); assay type: cell-based; conditions: lipid 0.1 μM, 2 hours, serum starved HEK 293 G2A.GFP cells
T2 construct: expressed in transfected cells; host or cells: HEK 293 cells infected with amphotropic MSCV G2A.GFP retrovirus
T2 sequence (Q9Z282 1-382): T1 sequence (Q9Z282 1-382)
Procedure: Agonist dependent receptor internalisation is a feature of GPCRs. G2A.GFP expressing HEK 293 cells (HEK 293 G2A.GFP) were generated by infection with amphotropic MSCV G2A.GFP retroviruses. In serum starved HEK 293 G2A.GFP cells, G2A.GFP is expressed predominantly on the plasma membrane. LPC (0.1 μM), as well as SPC (1 μM), induced internalisation of G2A.GFP in over 90% of cells (FIG. 6). Neither LPA, S-1-P or PAF induced G2A internalisation, which is consistent with LPC acting as a specific ligand for G2A. Treatment of HEK 293 G2A.GFP cells with SPC at low concentrations (0.1 μM) induced receptor internalisation in fewer cells (<50%).
HEK 293 G2A.GFP cells were seeded onto glass coverslips and subsequently serum starved for 16-24 hours prior to treatment with lipids. Two hours following lipid treatment, coverslips were washed with cold PBS and fixed with PBS/4% paraformaldehyde. Subcellular localisation of G2A.GFP was visualised under a confocal fluorescence microscope with a 60× oil immersion lens.

[3] = PTX 100 ng/ml, 16 hours, G2A.GFP-transfected MCF 10A cells
[4] = G2A.GFP transfected MCF 10A cells
[5] = G2A.GFP-transfected MCF 10A cells
[6] = BN 52021 200 μM pretreatment, G2A.GFP-transfected MCF 10A cells

CCCCCCCCCCCCCC(=O)OC[C@@H](O)COP(=O)([O-])OCC[N+](C)(C)C [14:0 LPC]
competition for binding of [3H] 16:0 LPC / [3H] SPC to G2A (G2A [1]): not and not able to compete

Pertussis Toxin [PTX]
effect of pretreatment on [Ca2+]i increases induced by LPA (1 μM), LPC (0.1 μM-5 μM) and SPC (1 μM-5 μM) (G2A [2]; [3]): inhibits
effect of pretreatment on [Ca2+]i increases induced by PAF (0.1 μM) or ATP (20 μM) (G2A [2]; [3]): not

lysophosphatidyc acid [LPA]
competition for binding of [3H] 16:0 LPC / [3H] SPC to G2A (G2A [1]): not
transient increase in [Ca2+]i (G2A [2]; [4]): transient elevations
[Ca2+]i response in control cells (MCF 10A cells): transient elevations

CCCCCCCCCCCCCC(=O)O[C@@H]1[C@@H](C)[C@@]2(O)[C@@H](C=C(CO)C[C@]3(O)C(=O)C(C)=C[C@@H]23)[C@@H]2C(C)(C)[C@]12OC(C)=O [PMA, Phorbol 12-myristate 13-acetate]
effect of pretreatment on [Ca2+]i increases induced by LPA, LPC and SPC (up to 10 μM) (G2A [2]; PMA 100 nM (b23 prints 0.1 mM), 5 minutes, G2A.GFP-transfected MCF 10A cells): abolished; also recorded: inhibits
effect of pretreatment on [Ca2+]i increases induced by PAF (0.1 μM) and ATP (20 μM) (G2A [2]; PMA 100 nM, 5 minutes, G2A.GFP-transfected MCF 10A cells): did not affect

CCCCCCCCCCCCC/C=C/[C@@H](O)[C@@H](N)COP(=O)([O-])OCC[N+](C)(C)C [SPC, sphingosylphosphorylcholine]
Kd (G2A [1]; Scatchard analysis, saturation binding of [3H] 16:0 LPC or [3H] SPC, HEK 293 G2A.GFP cell homogenate, 4° C., read-out: dissociation constant (Kd)): 229 nM
competition for binding of [3H] 16:0 LPC / [3H] SPC to G2A (G2A [1]): competed for binding
maximum binding capacity (G2A [1]; saturation binding, HEK 293 G2A.GFP cell homogenate): ~1,840 fmole/10^5 cells
EC50 (G2A [2]; G2A.GFP transfected MCF 10A cells, 1 mM EGTA in buffer, read-out: EC50 of dose-dependent increase in [Ca2+]i): ~400 nM
transient increase in [Ca2+]i (G2A [2]; [4]): induced a transient increase in [Ca^2+], albeit to a lesser extent; also recorded: induce transient [Ca^2+], increases
desensitisation to subsequent stimulation with LPC or SPC (1 μM) (G2A [2]; [5]): induced homologous and heterologous desensitisation; also recorded: induces desensitisation
[Ca2+]i response in control cells (MCF 10A cells): Neither parental or pEXV3 GFP transfected cells responded
cells with internalisation of G2A.GFP (G2A.GFP fusion receptor): < 50%

CCCCCCCCCCCCC/C=C/[C@@H](O)[C@@H](N)COP(=O)(O)O [S-1-P]
competition for binding of [3H] 16:0 LPC / [3H] SPC to G2A (G2A [1]): not

Nc1ncnc2c1ncn2[C@@H]1O[C@H](COP(=O)(O)OP(=O)(O)OP(=O)(O)O)[C@@H](O)[C@H]1O [ATP]
transient increase in [Ca2+]i (G2A [2]; [4]): transient elevations
[Ca2+]i response in control cells (MCF 10A cells): transient elevations

CCCCCCCCCCCCCCCCCC(=O)OC[C@@H](O)COP(=O)([O-])OCC[N+](C)(C)C [18:0 LPC]
competition for binding of [3H] 16:0 LPC / [3H] SPC to G2A (G2A [1]): potent competitors

CC1C(=O)OC2C(O)C34C5CC(C(C)(C)C)C36C(OC(=O)C6O)OC4(C(=O)O5)C12O (stereo not drawn) [BN 52021]
effect of pretreatment on [Ca2+]i increase induced by LPC (1 μM), SPC (1 μM), LPA (1 μM) or ATP (20 μM) (G2A [2]; [6]): not
effect of pretreatment on [Ca2+]i increase induced by PAF (G2A [2]; [6]): completely blocked

CCCCCCCCCCCCCCCCOC[C@@H](O)COP(=O)([O-])OCC[N+](C)(C)C [lyso-PAF]
competition for binding of [3H] 16:0 LPC / [3H] SPC to G2A (G2A [1]): not

sphingomyelin [SM]
competition for binding of [3H] 16:0 LPC / [3H] SPC to G2A (G2A [1]): not

lysophosphatidylinositol [LPI]
competition for binding of [3H] 16:0 LPC / [3H] SPC to G2A (G2A [1]): not

CCCCCCCCCCCCCCCC(=O)OC[C@@H](O)COP(=O)([O-])OCC[N+](C)(C)C [16:0 LPC]
competition for binding of [3H] 16:0 LPC / [3H] SPC to G2A (G2A [1]): potent competitors
desensitisation to subsequent stimulation with LPC or SPC (1 μM) (G2A [2]; [5]): induces desensitisation

CCCCCCCCCCCCCCCCOC[C@H](COP(=O)([O-])OCC[N+](C)(C)C)OC(C)=O [PAF]
competition for binding of [3H] 16:0 LPC / [3H] SPC to G2A (G2A [1]): not
transient increase in [Ca2+]i (G2A [2]; [4]): transient elevations
[Ca2+]i response in control cells (MCF 10A cells): transient elevations
